Among the data in PubChem BioAssay (NCI) are TGI values, retold here.

Molecules are shown by their SMILES.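 Each compound was tested at five concentrations against cells in 96-well plates for 48 hours. Definition used: TGI = concentration required for complete inhibition of growth.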 Some results are limits rather than exact numbers.

Some test systems named below: MDA-MB-435; EKVX NSCLC; RPMI-8226 leukemia; CAKI-1 renal; M14 melanoma; SK-MEL-2 melanoma; HCC-2998 colon; T-47D breast; MDA-MB-231 breast; SNB-19 CNS.
Assay in all cases: DTP human tumour cell line panel, 48 h

For `Nc1nc(N)c2nc(CN(C=O)c3ccc(C(=O)O)cc3)cnc2n1`, the TGI in the assay on MDA-MB-435, with EKVX NSCLC, in the assay with RPMI-8226 leukemia, in the assay with CAKI-1 renal, in the assay with M14 melanoma and with SK-MEL-2 melanoma was more than 100 µM each time. Also, the TGI in the assay with HCC-2998 colon, in the assay with T-47D breast, with MDA-MB-231 breast and in the assay on SNB-19 CNS was more than 100 µM throughout.
On to `O=c1c(-c2nc3ccccc3c3ccccc3c2=O)nc2ccccc2c2ccccc12`, for which the TGI – broadly, the concentration at which net growth stops – in the assay on MDA-MB-435 was 89 µM; in the assay on EKVX NSCLC it was more than 100 µM; in the assay with RPMI-8226 leukemia it was more than 100 µM; in the assay on CAKI-1 renal it was more than 100 µM; in the assay with M14 melanoma, more than 100 µM; with SK-MEL-2 melanoma it was more than 100 µM. For the same molecule, the TGI is 68 µM with HCC-2998 colon, more than 100 µM with T-47D breast, more than 100 µM in the assay with MDA-MB-231 breast and more than 100 µM with SNB-19 CNS.
Turning to `O=C(O)CN1C(=O)c2ccc(NC(=O)C(=O)O)cc2S1(=O)=O`, the TGI with MDA-MB-435, with EKVX NSCLC, with RPMI-8226 leukemia, in the assay with CAKI-1 renal, in the assay with M14 melanoma and with SK-MEL-2 melanoma was more than 100 µM each time. The TGI with HCC-2998 colon, in the assay on T-47D breast, with MDA-MB-231 breast and in the assay on SNB-19 CNS was more than 100 µM throughout.
Regarding `Nc1cccc(-c2cc(=O)c3cc4c(cc3[nH]2)OCO4)c1`, the TGI with MDA-MB-435 is 0.415 µM; in the assay on EKVX NSCLC, more than 100 µM; in the assay on RPMI-8226 leukemia, more than 100 µM; with CAKI-1 renal, more than 100 µM; in the assay on M14 melanoma, more than 79.6 µM; with SK-MEL-2 melanoma, 5.72 µM. Further, the TGI is 26.5 µM in the assay with HCC-2998 colon, more than 100 µM with T-47D breast, 8.64 µM in the assay on MDA-MB-231 breast and more than 48.5 µM with SNB-19 CNS.
For the molecule `COc1cccc(NC(=O)CC(=O)NN)c1`, the TGI in the assay on MDA-MB-435, in the assay on EKVX NSCLC, in the assay with RPMI-8226 leukemia, in the assay on CAKI-1 renal, in the assay on SK-MEL-2 melanoma and in the assay on T-47D breast was more than 100 µM in each case. Besides, the TGI in the assay with MDA-MB-231 breast and in the assay with SNB-19 CNS was more than 100 µM in each case.
For the molecule `CCOC(=O)[C@@]12C[C@](/C=C/OC)(O[Si](C)(C)C)[C@@]13c1cc(OC)c(OC)cc1CCN3C(=O)C2=O`, the TGI with MDA-MB-435, in the assay with EKVX NSCLC, in the assay on RPMI-8226 leukemia, in the assay with CAKI-1 renal, in the assay with M14 melanoma and in the assay on SK-MEL-2 melanoma was more than 100 µM in each case. For the same molecule, the TGI in the assay on T-47D breast, with MDA-MB-231 breast and with SNB-19 CNS was more than 100 µM in each case.
`COC(=O)[C@@H]1c2c(oc3cc(CO)cc(O)c3c2=O)C=C[C@H]1O`: the TGI turned out to be 15.5 µM in the assay with MDA-MB-435; 27.4 µM in the assay with EKVX NSCLC; 9.72 µM in the assay with RPMI-8226 leukemia; 22.4 µM in the assay with CAKI-1 renal; 19.8 µM in the assay on M14 melanoma; 28.9 µM in the assay with SK-MEL-2 melanoma. For the same molecule, the values for the TGI in the assay on T-47D breast, with MDA-MB-231 breast and with SNB-19 CNS were 9.4 µM, 27.5 µM and 33.5 µM, respectively.
Take `C[N+](C)(CCNc1ccc(NCC[N+](C)(C)Cc2ccc([N+](=O)[O-])cc2)c2c1C(=O)c1c(O)ccc(O)c1C2=O)Cc1ccc([N+](=O)[O-])cc1`: the TGI in the assay on MDA-MB-435, in the assay with EKVX NSCLC, in the assay with RPMI-8226 leukemia, in the assay on CAKI-1 renal, with M14 melanoma and with SK-MEL-2 melanoma was more than 50 µM each time. Also, the TGI with HCC-2998 colon, in the assay on T-47D breast and with MDA-MB-231 breast was more than 50 µM in each case.
On to `CC(C)(C)OC(=O)Cn1ncn(NC(=O)Cc2ccccc2)c1=S`, for which the TGI in the assay with MDA-MB-435, in the assay with EKVX NSCLC, in the assay on CAKI-1 renal, in the assay with M14 melanoma, in the assay with HCC-2998 colon and in the assay with T-47D breast was more than 10 µM each time. Moreover, the concentration for total growth inhibition (TGI) with MDA-MB-231 breast and in the assay on SNB-19 CNS was more than 10 µM throughout.
On to `O=C1Cc2cc3ccccc3nc2-c2ccccc2N1`, for which the TGI was more than 100 µM in the assay with MDA-MB-435; more than 100 µM in the assay on EKVX NSCLC; more than 100 µM in the assay with CAKI-1 renal; more than 100 µM in the assay on M14 melanoma; more than 100 µM in the assay on SK-MEL-2 melanoma; 90.4 µM with HCC-2998 colon. For the same molecule, the TGI in the assay on T-47D breast, in the assay on MDA-MB-231 breast and in the assay with SNB-19 CNS was more than 100 µM in each case.
Take `O=C(NNC(=O)c1ccco1)c1ccco1`: the total growth inhibition concentration (TGI) in the assay on MDA-MB-435, in the assay on EKVX NSCLC, in the assay with RPMI-8226 leukemia, in the assay on CAKI-1 renal, in the assay on M14 melanoma and in the assay with SK-MEL-2 melanoma was more than 100 µM in each case. In addition, the TGI in the assay with T-47D breast, in the assay on MDA-MB-231 breast and with SNB-19 CNS was more than 100 µM each time.
As for `O=C(/C=C/c1ccc(OCc2ccccc2)cc1)NCc1ccc(C(=O)NCCc2ccccc2)cc1`, the TGI with MDA-MB-435, in the assay on EKVX NSCLC, in the assay with CAKI-1 renal, in the assay with M14 melanoma, with SK-MEL-2 melanoma and with HCC-2998 colon was more than 100 µM each time. The TGI in the assay with T-47D breast, in the assay with MDA-MB-231 breast and in the assay on SNB-19 CNS was more than 100 µM each time.
Turning to `CSc1cc(Cl)c(C)cc1S(=O)(=O)NC(=O)NNc1ccc(C)cc1`, the TGI in the assay with MDA-MB-435 was more than 100 µM; in the assay with EKVX NSCLC it was more than 100 µM; with CAKI-1 renal, more than 100 µM; in the assay with M14 melanoma, more than 100 µM; with SK-MEL-2 melanoma, more than 100 µM; with HCC-2998 colon it was 66.1 µM. Further, the TGI with T-47D breast, in the assay with MDA-MB-231 breast and in the assay with SNB-19 CNS was more than 100 µM each time.
For the molecule `O=C(C[N+]12CN3CN(CN(C3)C1)C2)c1ccc(-c2ccccc2)cc1`, the TGI is more than 100 µM in the assay on MDA-MB-435; 44.9 µM in the assay on EKVX NSCLC; more than 100 µM in the assay on CAKI-1 renal; 49.5 µM in the assay with M14 melanoma; 35.2 µM in the assay on SK-MEL-2 melanoma; 28.9 µM in the assay on HCC-2998 colon. Besides, the TGI in the assay on T-47D breast was more than 100 µM; in the assay with MDA-MB-231 breast, 34.3 µM; in the assay with SNB-19 CNS, 57.5 µM.
`NC(=S)NNCC(=O)CC(O)(C(F)(F)F)C(F)(F)Cl` (configuration not stated): the TGI in the assay on MDA-MB-435, in the assay with EKVX NSCLC, in the assay with RPMI-8226 leukemia, with CAKI-1 renal, with M14 melanoma and in the assay on SK-MEL-2 melanoma was more than 100 µM throughout. Further, the TGI in the assay on T-47D breast, with MDA-MB-231 breast and in the assay with SNB-19 CNS was more than 100 µM throughout.
